Converted amounts (≈) assume the structure as drawn. Read-outs that look alike come from different tables or passages of the source.
Key:
[1] = Compounding studies: time for drug substance to dissolve in 25% HPBCD; format: physicochemical
Method: 1. 300 mg of BA was added to 30 ml of a 25% HPBCD (containing 0.6% saline) and mixed using a magnetic stirrer. The drug substance dissolved in 4 hours. This is deemed to be an unacceptably long time for a viable manufacturing process and it was decided to evaluate a procedure involving dissolving the drug substance directly in the HPBCD. 2. In a second study 500 mg of BA dissolved in a 50 ml of a 25% HPBCD vehicle (no saline) in approx 90 minutes. The dissolution rate of BA was deemed to be a more acceptable time and provides some prospect for a viable larger scale process. Further excipients could be added after the drug substance has been dissolved.

[2] = Equilibrium solubility of 4-iodo-3-nitrobenzamide, overnight at 25° C., measured by HPLC; format: physicochemical; details: for solubility: thermodynamic from solid, read-out: Solubility
Method: Excess 4-iodo-3-nitrobenzamide (“BA”) was equilibrated overnight (>16 hr) at 25° C. in purified water, 0.01M HCl (pH2), 0.01M NaOH ([…]), and 0.9% NaCl. Following dilution, the solubility of the drug was measured by HPLC.
Excess 4-iodo-3-nitrobenzamide was equilibrated overnight (>16 hr) at 25° C. in solutions of purified water containing various concentrations of cyclodextrins including hydroxypropyl-β-cyclodextrin (Kleptose® from Roquette) (HPBCD), sulfobutyl ether-β-cyclodextrin (Captisol® from Cyclex) (SBEBCD), and Hyroxypropyl-γ-cyclodextrin (Cavamax W8® from Wacker) (HPGCD). Following dilution, the solubility of the drug was measured by HPLC.
Excess 4-iodo-3-nitrobenzamide was equilibrated overnight (>16 hr) at 25° C. in purified water containing various concentrations of the surfactants: polyethylene sorbitan monooleate (Polysorbate 80), polyoxyethylene sorbitan monolaurate (Polysorbate 20), Cremophor EL (BASF), Cremophor RH40 (BASF), Poloxamer 118, and Solutol HS-15 (BASF). Following dilution, the solubility of the drug was measured by HPLC.
Excess 4-iodo-3-nitrobenzamide was equilibrated overnight (>16 hr) at 25° C. in solutions of purified water containing various co-solvents including ethanol, glycofurol, glycerin formal, benzyl alcohol, N,N, dimethylacetamide (DMA), polyethylene glycol (PEG) 400, and propylene glycol. Following dilution, the solubility of the drug was measured by HPLC.
Excess 4-iodo-3-nitrobenzamide was equilibrated overnight (>16 hr) at 25° C. in solutions in purified water containing mixtures of solubilizers. Following dilution, the solubility of the drug was measured by HPLC.

NC(=O)c1ccc(I)c([N+](=O)[O-])c1 [BA, 4-iodo-3-nitrobenzamide]
Time for drug substance to dissolve ([1]; 300 mg of BA in 30 ml of 25% HPBCD containing 0.6% saline, magnetic stirrer): 4 h | Time for drug substance to dissolve ([1]; 500 mg of BA in 50 ml of 25% HPBCD vehicle (no saline)): approx 90 minutes | solubility ([2]; 0.01 M HCl, 25 °C, pH 2, simulated gastric fluid, 0.01 M HCl (pH 2), 25° C.): 179 µg/mL (≈ 0.613 mM) | solubility ([2]; 0.01 M NaOH, 25 °C, pH 13, aqueous buffer, 0.01M NaOH (pH 13), 25° C.): 181 µg/mL (≈ 0.62 mM) | solubility ([2]; 0.9% NaCl, 25 °C, saline or isotonic, 0.9% NaCl, 25° C.): 164 µg/mL (≈ 0.562 mM) | solubility ([2]; 5% DMA (N,N-dimethylacetamide) in purified water, 25 °C, aqueous with cosolvent or surfactant or cyclodextrin, DMA 5%, 25° C.): 1390 µg/mL (≈ 4.76 mM) | Enhancement ([2]; 5% DMA/5% EtOH/40% PEG 400): 44.0 | solubility ([2]; 5% DMA/5% EtOH/40% PEG 400 in purified water, 25 °C, aqueous with cosolvent or surfactant or cyclodextrin, 5% DMA/5% EtOH/40% PEG 400, 25° C.): 8010 µg/mL (≈ 27.4 mM) | Enhancement ([2]; 5% DMA/25% Solutol HS-15): 45.7 | solubility ([2]; 5% DMA/25% Solutol HS-15 in purified water, 25 °C, aqueous with cosolvent or surfactant or cyclodextrin, 5% DMA/25% Solutol HS-15, 25° C.): 8320 µg/mL (≈ 28.5 mM) | Enhancement ([2]; 5% DMA/40% PEG 400): 33.2 | solubility ([2]; 5% DMA/40% PEG 400 in purified water, 25 °C, aqueous with cosolvent or surfactant or cyclodextrin, 5% DMA/40% PEG 400, 25° C.): 6050 µg/mL (≈ 20.7 mM) | Enhancement ([2]; 5% Polysorbate 20/5% ETOH): 12.1 | solubility ([2]; 5% Polysorbate 20/5% ethanol in purified water, 25 °C, aqueous with cosolvent or surfactant or cyclodextrin, 5% Polysorbate 20/5% ETOH, 25° C.): 2210 µg/mL (≈ 7.57 mM) | Enhancement ([2]; 5% Polysorbate 20/5% glycofurol): 11.0 | solubility ([2]; 5% Polysorbate 20/5% glycofurol in purified water, 25 °C, aqueous with cosolvent or surfactant or cyclodextrin, 5% Polysorbate 20/5% glycofurol, 25° C.): 2000 µg/mL (≈ 6.85 mM) | Enhancement ([2]; 5% Polysorbate 80/5% ETOH): 12.3 | solubility ([2]; 5% Polysorbate 80/5% ethanol in purified water, 25 °C, aqueous with cosolvent or surfactant or cyclodextrin, 5% Polysorbate 80/5% ETOH, 25° C.): 2230 µg/mL (≈ 7.64 mM) | Enhancement ([2]; 5% Polysorbate 80/5% glycofurol): 13.1 | solubility ([2]; 5% Polysorbate 80/5% glycofurol in purified water, 25 °C, aqueous with cosolvent or surfactant or cyclodextrin, 5% Polysorbate 80/5% glycofurol, 25° C.): 2390 µg/mL (≈ 8.18 mM) | Enhancement ([2]; 5% Polysorbate 80/10% EtOH/40% PEG 400): 6.7 | solubility ([2]; 5% glucose (5GW), 25 °C, saline or isotonic, 5% Glucose (5GW), 25° C.): 173 µg/mL (≈ 0.592 mM) | solubility ([2]; 10% Cremophor EL in purified water, 25 °C, aqueous with cosolvent or surfactant or cyclodextrin, Cremophor EL 10%, 25° C.): 3500 µg/mL (≈ 12 mM) | solubility ([2]; 10% Cremophor RH40 in purified water, 25 °C, aqueous with cosolvent or surfactant or cyclodextrin, Cremophor RH40 10%, 25° C.): 3370 µg/mL (≈ 11.5 mM) | Enhancement ([2]; 10% EtOH/10% Polysorbate 80): 11.5 | Enhancement ([2]; 10% EtOH/40% PEG 400): 18.8 | Enhancement ([2]; 10% EtOH/40% PEG 400,/5% Benzyl Alcohol): 17.1 | solubility ([2]; 10% HPBCD in purified water, 25 °C, aqueous with cosolvent or surfactant or cyclodextrin, HPBCD 10% in purified water, 25° C.): 4860 µg/mL (≈ 16.6 mM) | solubility ([2]; 10% Poloxamer 118 in purified water, 25 °C, aqueous with cosolvent or surfactant or cyclodextrin, Poloxamer 118 10%, 25° C.): 430 µg/mL (≈ 1.47 mM) | solubility ([2]; 10% Polysorbate 20 in purified water, 25 °C, aqueous with cosolvent or surfactant or cyclodextrin, Polysorbate 20 10%, 25° C.): 3660 µg/mL (≈ 12.5 mM) | solubility ([2]; 10% Polysorbate 80 in purified water, 25 °C, aqueous with cosolvent or surfactant or cyclodextrin, Polysorbate 80 10%, 25° C.): 3120 µg/mL (≈ 10.7 mM) | Enhancement ([2]; 10% glycofurol, 40% PEG 400): 33.6 | solubility ([2]; 20% HPBCD in purified water, 25 °C, aqueous with cosolvent or surfactant or cyclodextrin, HPBCD 20% in purified water, 25° C.): 9960 µg/mL (≈ 34.1 mM) | solubility ([2]; 25% HPBCD in purified water, 25 °C, aqueous with cosolvent or surfactant or cyclodextrin, HPBCD 25% in purified water, 25° C.): 11500 µg/mL (≈ 39.3 mM) | solubility ([2]; 25% HPGCD in purified water, 25 °C, aqueous with cosolvent or surfactant or cyclodextrin, HPGCD 25% in purified water, 25° C.): 272 µg/mL (≈ 0.931 mM) | solubility ([2]; 25% SBEBCD in purified water, 25 °C, aqueous with cosolvent or surfactant or cyclodextrin, SBEBCD 25% in purified water, 25° C.): 11000 µg/mL (≈ 37.8 mM) | solubility ([2]; 25% Solutol HS 15 in purified water, 25 °C, aqueous with cosolvent or surfactant or cyclodextrin, Solutol HS 15 25%, 25° C.): 6550 µg/mL (≈ 22.4 mM) | solubility ([2]; 30% Solutol HS 15 in purified water, 25 °C, aqueous with cosolvent or surfactant or cyclodextrin, Solutol HS 15 30%, 25° C.): 7460 µg/mL (≈ 25.5 mM) | solubility ([2]; 40% HPBCD in purified water, 25 °C, aqueous with cosolvent or surfactant or cyclodextrin, HPBCD 40% in purified water, 25° C.): 12800 µg/mL (≈ 43.7 mM) | solubility ([2]; 50% PEG 400 in purified water, 25 °C, aqueous with cosolvent or surfactant or cyclodextrin, PEG 400 50%, 25° C.): 7660 µg/mL (≈ 26.2 mM) | Enhancement ([2]; 50% Polysorbate 20/50% EtOH): 89.6 | solubility ([2]; 50% Polysorbate 20/50% EtOH, 25 °C, organic solvent or mixture, 50% Polysorbate 20/50% EtOH, 25° C.): 16300 µg/mL (≈ 55.9 mM) | Enhancement ([2]; 50% Polysorbate 80/50% EtOH): 102.2 | solubility ([2]; 50% Polysorbate 80/50% EtOH, 25 °C, organic solvent or mixture, 50% Polysorbate 80/50% EtOH, 25° C.): 18600 µg/mL (≈ 63.7 mM) | solubility ([2]; 50% ethanol in purified water, 25 °C, aqueous with cosolvent or surfactant or cyclodextrin, Ethanol 50%, 25° C.): 5720 µg/mL (≈ 19.6 mM) | solubility ([2]; 50% glycerin formal in purified water, 25 °C, aqueous with cosolvent or surfactant or cyclodextrin, Glycerin Formal 50%, 25° C.): 3450 µg/mL (≈ 11.8 mM) | solubility ([2]; 50% glycofurol in purified water, 25 °C, aqueous with cosolvent or surfactant or cyclodextrin, Glycofurol 50%, 25° C.): 9850 µg/mL (≈ 33.7 mM) | solubility ([2]; 50% propylene glycol in purified water, 25 °C, aqueous with cosolvent or surfactant or cyclodextrin, Propylene glycol 50%, 25° C.): 2240 µg/mL (≈ 7.67 mM) | solubility ([2]; 100% DMA (N,N-dimethylacetamide), 25 °C, organic solvent or mixture, DMA 100%, 25° C.): 71500 µg/mL (≈ 245 mM) | solubility ([2]; 100% Polysorbate 20, 25 °C, organic solvent or mixture, Polysorbate 20 100%, 25° C.): 10800 µg/mL (≈ 37.2 mM) | solubility ([2]; 100% Polysorbate 80, 25 °C, organic solvent or mixture, Polysorbate 80 100%, 25° C.): 16900 µg/mL (≈ 57.8 mM)

Source: patent US20100160442A1, “FORMULATIONS FOR CANCER TREATMENT” (priority 2006, published 2010)
